Results as given in article PMC7108740, “Exploring the molecular structures that confer ligand selectivity for galanin type II and III receptors” (PLoS ONE, 2020).
Ends that are not written are not given here.

Experiments:
human GALR2 = biological target: T1, human GALR2 (Homo sapiens, UniProt O43603); assay: SRE-luc luciferase assay, WT GALR2; format: cell-based; conditions: SRE-luc in HEK293 Gqi cells, ligand 6 h, mean ± SE, at least three independent experiments, SEM
T1 construct: host or cells: HEK293 cells stably expressing Gqi
T1 sequence (O43603 1-387): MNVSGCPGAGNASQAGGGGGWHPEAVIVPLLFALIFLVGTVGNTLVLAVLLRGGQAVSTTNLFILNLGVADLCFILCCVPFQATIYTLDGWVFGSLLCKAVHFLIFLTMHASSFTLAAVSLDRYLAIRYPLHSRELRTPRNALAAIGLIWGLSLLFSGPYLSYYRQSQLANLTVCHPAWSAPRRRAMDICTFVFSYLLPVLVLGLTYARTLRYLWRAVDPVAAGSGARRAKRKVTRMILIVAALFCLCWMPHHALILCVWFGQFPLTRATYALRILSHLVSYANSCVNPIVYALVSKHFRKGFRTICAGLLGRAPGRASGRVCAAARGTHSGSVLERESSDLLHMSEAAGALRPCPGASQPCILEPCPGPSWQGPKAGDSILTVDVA
Excerpt: (§1) The pcDNA3.1 vector was purchased from Invitrogen (San Diego, CA, USA). The serum response element (SRE)-luciferase (SRE-luc) vector containing a single copy of the SRE (CCATATTAGG) conjugated with luciferase was purchased from Stratagene (La Jolla, CA, USA). The cDNAs for human GALR1, GALR2, and GALR3 were obtained from BRN SCIENCE, Inc. The cDNAs were inserted into the EcoRⅠ and XhoⅠ sites of pcDNA3.1.
(§2) HEK293 cells stably expressing the Gqi construct, which allows induction of Gq-dependent signaling pathways upon activation of a Gi-coupled receptor [14, 30], were maintained in Dulbecco's Modified Eagle's Medium (DMEM) in the presence of 10% fetal bovine serum and 1% penicillin and streptomycin. For all transfections, 200 ng DNA (100 ng receptor and 100 ng SRE-luc) mixed with lipofectamine 2000 was applied to 60–80% confluent cells on a multi-well plate according to the manufacturer's instructions (Invitrogen, Carlsbad, CA).
(§3) For luciferase assays, HEK293 Gqi cells were seeded on 48-well plates at a density of 2.5 × 10^4 cells/well one day before transfection. A mixture including 100 ng SRE-luc reporter construct, 100 ng expression plasmid, and lipofectamine 2000 reagent in diluted Opti-MEM (Gibco) was incubated at room temperature for 20 min and then added into each well according to the manufacturer's instructions (Invitrogen, CA, USA). Before exposure to the ligands, the cells were maintained in serum-free DMEM for 16–18 h. Approximately 48 h after transfection, the cells were treated with ligand for 6 h. The cells were then lysed by the addition of 100 μl lysis buffer. The luciferase activity in 50 μl cell extract was determined using a luciferase assay system according to the standard protocol for the Synergy 2 Multi-Mode Microplate Reader (BioTek, Winooski, VT, USA).
(§4) Data analysis was performed by non-linear regression with a sigmoidal dose-response curve. The concentrations of agonists that induced half-maximal stimulation (EC50) were calculated using the GraphPad PRISM5 software (GraphPad software, Inc., San Diego, CA). All data are presented as the mean ± standard error (SE) of at least three independent experiments.

GALR3 = biological target: T2, GALR3 (Homo sapiens, UniProt O60755); assay: SRE-luc luciferase assay, WT GALR3; format: cell-based; design: host or cells: HEK293 cells stably expressing Gqi; conditions: SRE-luc in HEK293 Gqi cells, ligand 6 h, mean ± SE, at least three independent experiments, SEM
T2 sequence (O60755 1-368): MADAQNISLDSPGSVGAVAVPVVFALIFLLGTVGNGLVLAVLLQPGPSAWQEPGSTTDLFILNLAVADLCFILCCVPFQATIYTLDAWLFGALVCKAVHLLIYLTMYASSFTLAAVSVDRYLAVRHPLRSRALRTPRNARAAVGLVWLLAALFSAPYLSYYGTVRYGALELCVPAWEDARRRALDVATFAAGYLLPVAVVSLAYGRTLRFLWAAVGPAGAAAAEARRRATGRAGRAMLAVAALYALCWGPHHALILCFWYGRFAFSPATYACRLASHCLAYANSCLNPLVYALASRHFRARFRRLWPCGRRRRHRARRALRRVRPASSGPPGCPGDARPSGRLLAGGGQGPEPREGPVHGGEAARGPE
Excerpt: as §1, §2, §3, §4

Compound | EC50 (human GALR2) | EC50 (GALR3)
NWTPQAALYLKGAQ-NH2 [A^7-SPX] | 40.7 ± 13.2 nM | –
NWTPQAMLYLKGPQ-NH2 [P^13-SPX] | 33.1 ± 6.19 nM | 333 ± 55.7 nM
NWTPNAMLYLKGAQ-NH2 [N^5-SPX] | 87.7 ± 10.6 nM | 398 ± 96.1 nM
CSCC[C@H](NC(=O)[C@H](C)NC(=O)[C@H](CCC(N)=O)NC(=O)[C@@H]1CCCN1C(=O)[C@@H](NC(=O)[C@H](Cc1c[nH]c2ccccc12)NC(=O)[C@@H](N)CC(N)=O)[C@@H](C)O)C(=O)N[C@@H](CC(C)C)C(=O)N[C@@H](Cc1ccc(O)cc1)C(=O)N[C@@H](CC(C)C)C(=O)N[C@@H](CCCCN)C(=O)NCC(=O)N[C@@H](C)C(=O)N[C@@H](CCC(N)=O)C(N)=O [SPX, reference compound] | – | 115 nM
